One test concerns PHTX02B xenograft model. Put plainly: Combination of gemcitabine and MLN4924 in PHTX02B xenograft model. Type of test: in vivo, mice. The procedure: (§1) The PHTX02B breast xenograft model was established from a patient-derived tumor collected during surgery from a person with invasive ductal carcinoma classified as triple negative breast cancer (ER-/PR-/Her2-) by IHC. […] Gemcitabine (Gemzar, Henry Schein, Inc, Pittsburgh Pa., and Myoderm Medical, Norristown, Pa.) is formulated in 0.9% saline and administered by intraperitoneal injection (IP) q3Dx4 (every 3 days for a total of 4 doses) at 2.5 mg/kg or 10 mg/kg, or by IV injection twice weekly (BIW) at 20 mg/kg IVU. […] Tumors are measured twice weekly using a vernier caliper. […] Tumor size and body weight are measured approximately twice a week for the duration of the study. […] Tumor growth continued to be monitored after the dosing period in some studies. […] Average tumor volume is reported as a function of time for selected groups of selected studies in Figures A, B, and C. Measurements from day 0 to 18, 21 or 22 are analyzed as specified in Tables 4-9. […] For each animal, the log tumor volume at day 0 is subtracted from the log tumor volume on the subsequent days. This difference vs. time is used to calculate an area under the curve (AUC) for each animal using the trapezoid rule. In instances when an animal in a treatment group is removed early from the study, the last observed tumor value is carried forward through all subsequent time points. […] The standard error of the synergy score is computed based on the variation in the AUC values among the animals. […] Otherwise, the combination is classified as antagonistic.

The test system of the next test is A549. Put plainly: In vitro cell viability combination assay (CellTiter-Glo). The settings on record: agent combined with MLN4924, vehicle DMSO, 72 hr. (Cellular ATP, detected with luciferase, serves as a proxy for viable cell number.)
The test system of the next test is PANC1. The test is described as above. Type of test: cell-based. The settings on record: agent combined with MLN4924, vehicle DMSO, 72 hr. An excerpt: (§2) After normalization, the controls are discarded.
(§3) Otherwise, the classification is “Additivity”.

A further test concerns MIA PaCa-2. The description is as above. The settings on record: agent combined with MLN4924, vehicle DMSO, 72 hr. It counts as cell-based.
Description: as §2, §3

In a further test the test system is BxPC3. The description is as above. The settings on record: agent combined with MLN4924, vehicle DMSO, 72 hr. Type of test: cell-based.
Description: as §2, §3

The test system of test [1] is PHTX249Pa xenograft model. Put plainly: Combination of gemcitabine and MLN4924 in PHTX249Pa xenograft model. Type of test: in vivo, mice. The protocol:
as §1, with “PHTX249 Pa pancreatic” for “PHTX02B breast”, “pancreatic adenocarcinoma.” for “invasive ductal carcinoma classified as triple negative breast cancer (ER-/PR-/Her2-) by IHC.”

A further test concerns HCT116. Put plainly: In vitro cell viability combination assay (CellTiter-Glo). The settings on record: agent combined with MLN4924, vehicle DMSO, 48 hr.

Molecules are shown by their SMILES.

Description for A549: (§4) General Method: Cells are grown in their respective growth media, supplemented with 10% fetal bovine serum unless otherwise noted. […] A portion of each plate is used for positive controls (no agent is added), while another portion of each plate is used for negative controls (no cells are added). Viability is assessed with CellTiter-Glo® Cell Viability reagent used according to manufacturer's instructions (Promega). Luminescence is measured using a LEADseeker imaging system (GE Healthcare).
(§5) The viability data is normalized separately for each plate by scaling the data so that the median of the negative controls is 0 and the median of the positive controls is 100. More formally,
(§6) [formula] where Vi is the normalized viability of the i^th well, Ui is the raw viability measurement, median (U) is the median of the negative controls, and median (U+) is the median of the positive controls. After normalization, the controls are discarded.
(§7) where E1, E2, E3, E4, I1, I2, I3, S1, S2, S3, and S4 are parameters, CA and CB are the respective concentrations of agents A and B, and V is the normalized viability measurement. It is assumed that the error values are independent and identically distributed normal random variables.
(§8) The Combination Index is computed based on an isobologram, which is a slice of the dose response surface with constant viability. For the present analysis, the 50% isobologram, which is the dose contour that has 50% viability, is used. […] Since the choice of (DA, DB) can be arbitrary, the constraint DA/DB=EC50A/EC50B is used.
(§9) In such cases, Nonlinear Blending can be used as an alternative measure of synergy or additivity. Nonlinear Blending is found by considering a slice of the dose response surface that intersects both concentration axes and runs parallel to the viability axis. Let VA and VB be the viability where the slice intersects the drug A and B axes, respectively. Let Vmax and Vmin be the maximum and minimum viabilities along the slice. Let NLBS=min(VA,VB)−Vmin NLBA=Vmax−max(VA,VB) Define the Nonlinear Blending value to be NLBS if NLBS>NLBA and −NLBA otherwise.
(§10) After completing the analysis of individual plates, the results are combined across the replicates. For a given measure and a set of replicates, the overall mean and standard error are computed using weighted averaging. A null mean, which corresponded to an additive effect, is then compared with the overall mean. The null mean is 1 for the Combination Index and 0 for Nonlinear Blending. Next, a two sized Z-test is performed based on the estimated mean and standard error. This produces a p-value for each measure and each cell line.
(§11) After computing the mean, standard error, and p-value for each set of replicates, these values require interpretation. Thus, a standard procedure is used to produce a classification (synergy, additivity, subadditivity, antagonism, or inconclusive) in each case. If the Combination Index exists for more than half of the replicates, then these measures are used to make the classification.
(§12) Consider the case where the Combination Index is used to make the classification. If the p-value is greater than 0.05, the estimate for the Combination Index is not statistically different from 1. However, if the standard error is also very large, then the estimate is too uncertain to be informative. […] Otherwise, the classification is “Additivity”. When the p-value is less than 0.05, the estimate for the Combination Index is statistically different from 1. However, if the mean is still close to 1, then the difference is not of practical significance. Thus, the result is classified based on the mean. A mean in the range (0.8, 1.2) is considered close enough to 1 to be classified as Additivity. A mean in the range (0, 0.8) is considered low enough to be classified as Synergy. […] The threshold value of 2 can be derived from the definition of the Combination Index.
Description for HCT116: as §4, §5, §6, §7, §8, §9, §10, §11, §12

Take `Nc1ccn([C@@H]2O[C@H](CO)[C@@H](O)C2(F)F)c(=O)n1` [gemcitabine]: the “average tumor volume day 22” value in the test with PHTX02B xenograft model (2.5 mg/kg gemcitabine Q3Dx4 IP) was 1386.3 mm^3; in the test with PHTX02B xenograft model (10 mg/kg gemcitabine Q3Dx4 IP), 769.4 mm^3. Also, the “tumor growth during the treatment period (in words)” value in the test on PHTX02B xenograft model (FIG. 2, MLN4924 SC 30 mg/kg BID, gemcitabine 10 mg/kg IP q3dx4, single agents or their combination) is “inhibited tumor growth compared to the control vehicle group”. Moreover, the “Combination Index” value in the test with A549 is listed as 1.44 ± 0.07; with PANC1 it was 0.24; with MIA PaCa-2, 1.15; in the test with BxPC3, 1.49; in the test on HCT116, 0.49 ± 0.1. Also, the “Nonlinear Blending” value in the test on A549 is −16 ± 3; in the test on PANC1, 19.4; in the test on MIA PaCa-2, −8.1; in the test on BxPC3, −26.0; with HCT116, 30 ± 3. For the same compound, the “average tumor volume day 18” value in test [1] (PHTX249Pa xenograft, 20 mg/kg gemcitabine BIW IV) is listed as 585.1 mm^3. Also, in test [1] (PHTX249 Pa xenograft, gemcitabine 20 mg/kg IV BIW, MLN4924 90 mg/kg SC BID BIW, single agents or their combination), the “tumor growth compared to the control vehicle group (in words)” value is reported as “inhibited tumor growth compared to the control vehicle group”.

The values are drawn from patent US10786505B2, “Administration of NEDD8-activating enzyme inhibitor and chemotherapeutic agents” (Millennium Pharmaceuticals, Inc., priority 2013, dated 2020).
